Tests used:
EP300 catalytic domain = target: T1, EP300 catalytic domain (Homo sapiens, UniProt Q09472); assay: TR-FRET assay of EP300-catalyzed acetylation of a histone H3 peptide; assay type: biochemical; conditions: 50 nM H3 peptide and 200 μM acetyl-CoA
T1 construct: disrupt the activity of EP300 catalytic domain; purchased Enzo BML-SE451-0100
T1 sequence (Q09472 1287-1663 limits assumed): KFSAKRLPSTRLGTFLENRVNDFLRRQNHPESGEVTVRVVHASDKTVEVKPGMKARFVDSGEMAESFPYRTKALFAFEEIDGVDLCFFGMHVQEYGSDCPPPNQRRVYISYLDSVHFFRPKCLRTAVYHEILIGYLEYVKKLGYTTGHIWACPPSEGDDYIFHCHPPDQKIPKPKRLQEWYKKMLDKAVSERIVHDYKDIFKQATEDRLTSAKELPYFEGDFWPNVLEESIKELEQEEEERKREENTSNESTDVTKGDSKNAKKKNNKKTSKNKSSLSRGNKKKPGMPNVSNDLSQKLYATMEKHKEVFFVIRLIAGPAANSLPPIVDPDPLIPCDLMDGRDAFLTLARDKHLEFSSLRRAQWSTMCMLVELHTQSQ
Description: Reaction mixtures were incubated for 1 h prior to addition of Alexa Fluor 647-labeled anti-H3K9Ac antibody and Europium-labeled streptavidin.
Briefly, an enzyme mix was made consisting of EP300 (100 nM; Enzo BML-SE451-0100) in assay buffer (25 mM HEPES pH 7.5, 150 mM NaCl, 2 mM DTT, 0.0001% Tween-20, 0.1 mg/m acetylated bovine serum albumin). This enzyme mix (3 μL) was added to white solid-bottom 1536-well plates (Greiner 789175) using a BioRaptr 2.0 Flying Reagent Dispenser (Let’s Go Robotics). […] Plates were read using a PHERAstar FSX microplate reader with HTRF optical module (BMG LabTech) and normalized to no enzyme (negative) and DMSO (neutral) controls. Standard curves were generated through titration of peptide substrate and acetylated peptide [Lys(Ac)9]-Histone H3 (1-21; AnaSpec AS-64191) to benchmark activity. […] Replicate activity measurements in the presence of inhibitors were averaged and half-maximal inhibition values calculated from the nonlinear fit of dose-response data using GraphPad Prism 9.

[1] = HPLC analysis of photocaged inhibitor release (photodeprotection); assay type: physicochemical; conditions: 302 nm or 365 nm light, aqueous solution or buffer
Description: One potential reason EP300/CREBBP acetyltransferase inhibitors are not actively being evaluated in clinical trials is on-target toxicity.[10] Thus, these molecules may benefit from strategies to direct them more specifically to malignant – as opposed to healthy – tissues. Light-activated drug release provides one potential approach.[38] […] Considering the studies above we wondered: could the high potency of the CPI-1612 scaffold enable conditional release of an active EP300/CREBBP inhibitor? To explore this, we prepared a photocaged CPI-1612 analogue (4) (Fig. 5a). […] Parent inhibitor 5 was synthesized based on the published route[40] and derivatized with nitrobenzyl chloroformate to produce the photocaged analogue 4 (Scheme S1). […] Cells were then incubated for 3 h, harvested, and assessed for changes in EP300/CREBBP-dependent H3K18Ac. […]
To assess the ability of 4 to undergo photodeprotection to form 5 in the presence of UV light, we analyzed model reactions by HPLC. […] To assess conversion of 4 to 5, irradiated reactions and controls were analyzed using an Agilent 1260 Infinity HPLC equipped with a Phenomenenex Kinetex C18 column (2.6 μm, 100 Angstrom, 100 × 4.6 mm inner diameter, H20-280322) and UV detector with monitoring at 280 nm. […]

[2] = system: EP300/CREBBP-dependent H3K18Ac in MCF-7 cells; assay: Cellular photouncaging, H3K18Ac Western blot in MCF-7 cells; assay type: cell-based, human; conditions: MCF-7, 10 or 25 μM
Description: One potential reason EP300/CREBBP acetyltransferase inhibitors are not actively being evaluated in clinical trials is on-target toxicity.[10] Thus, these molecules may benefit from strategies to direct them more specifically to malignant – as opposed to healthy – tissues. Light-activated drug release provides one potential approach.[38] […] Considering the studies above we wondered: could the high potency of the CPI-1612 scaffold enable conditional release of an active EP300/CREBBP inhibitor? To explore this, we prepared a photocaged CPI-1612 analogue (4) (Fig. 5a). […] Parent inhibitor 5 was synthesized based on the published route[40] and derivatized with nitrobenzyl chloroformate to produce the photocaged analogue 4 (Scheme S1). […] To test whether active EP300/CREBBP inhibitor release could be controlled by light, we incubated cells with […] (10 or 25 μM), washed to remove inhibitor in media, and irradiated them for 1 min at 302 nm (Fig. 5e). Cells were then incubated for 3 h, harvested, and assessed for changes in EP300/CREBBP-dependent H3K18Ac. […] Although beyond the scope of the current study, we envision targeted release of potent EP300/CREBBP inhibitors could find utility in malignancies already treated using phototherapy, such as head and neck cancers,[41] as well as valuable applications in basic science.[42] […]

[3] = parameters: method as in ref 40 = [40]; 40. Wilson J. E.; Brucelle F.; Levelle J. R. P300/CBP HAT inhibitors . WO2019161162A1 , 2019 .; conditions: patent literature; cited from earlier work

Row | decrease in EP300/CREBBP inhibitor potency of caged relative to uncaged analogue 5 (EP300 catalytic domain) | photodeprotection to 5 (HPLC reaction monitoring) [1] | SMILES | change in H3K18Ac, treated and exposed to light (UV) ([2]; 302 nm 1 min, then 3 h) | change in H3K18Ac, treated only (no irradiation) ([2]; no UV) | in vivo antitumor activity [3]
1 | ~ 50 fold | facile conversion of 4 to 5 | COc1cc(COC(=O)N(C[C@@H](C)c2ccc(C#N)cc2)C(C(=O)Nc2ccc(-c3cnn(CC(=O)N4CCCC4)c3)cn2)c2ccccc2)c([N+](=O)[O-])cc1OC (some centres unmarked) [Compound 4] | clear decreases in H3K18Ac | no such effect | 
2 |  |  | C[C@H](CNC(C(=O)Nc1ccc(-c2cnn(CC(=O)N3CCCC3)c2)cn1)c1ccccc1)c1ccc(C#N)cc1 (some centres unmarked) [Compound 5] |  |  | potent in vivo antitumor activity
